Data published in patent US20220249441A1, “Homodimeric Tobramycin Adjuvant Repurposes Novobiocin as an Effective Antibacterial Agent Against Gram-Negative Bacteria” (priority 2019, published 2022).

Key:
P. aeruginosa = assay: Checkerboard assay (antibiotic + adjuvant combination MIC); type: cell-based, Pseudomonas aeruginosa; conditions: for MIC of Novobiocin + adjuvant (7.1 μM): PMBN or 1 at 7.1 μM
Description: (§1) Antimicrobial Susceptibility Assay. The in vitro antimicrobial activity of all compounds/antibiotics against a panel of bacteria was evaluated by microbroth dilution method in accordance with the Clinical and Laboratory Standards Institute (CLSI) guidelines (using ATCC strains as quality control strains) (54). Overnight grown bacterial cultures were diluted in saline to achieve a 0.5 McFarland turbidity, followed by 1:50 dilution in Mueller-Hinton broth (MHB) for inoculation to a final concentration of approximately 5×10^5 CFU/mL. […] The lowest concentration that prevented the visible growth of bacteria was defined as the MIC for each antimicrobial agent. The broth with or without bacterial cells was used as positive or negative control, respectively.
(§2) Checkerboard Assay. Combination studies with different antibiotics were performed in 96-well plates as previously described (19). Briefly, the antibiotic of interest was serially diluted in MHB along the abscissa while the adjuvant (tobramycin homodimer) was serially diluted in MHB along the ordinate. This creates a 10×7 matrices wherein each well consists of a combination of different antibiotic and adjuvant concentrations. Overnight grown bacterial cultures were diluted in saline to achieve a 0.5 McFarland turbidity, followed by 1:50 dilution in Mueller-Hinton broth (MHB) for inoculation to a final concentration of approximately 5×10^5 CFU/mL. […] MIC was recorded as wells with the lowest concentration of drugs with no bacterial growth. The fractional inhibitory concentration (FIC) for each antibiotic was calculated by dividing the MIC of the antibiotic in the presence of adjuvant by the MIC of the antibiotic alone. Similarly, the FIC of adjuvant was calculated by dividing the MIC of the adjuvant in the presence of antibiotic by the MIC of the adjuvant alone. FIC index is the sum of both FICs. FIC indices of ≤0.5 were deemed synergistic; >0.5-4, no interaction; and >4, antagonistic.

A. baumannii = assay: as above; type: cell-based, Acinetobacter baumannii
Description: as §1, §2

E. coli = assay: as above; type: cell-based, Escherichia coli; conditions: PMBN or 1 at 7.1 μM
Description: as §1, §2

K. pneumoniae = assay: as above; type: cell-based, Klebsiella pneumoniae; conditions: KP 113254; PMBN or 1 at 7.1 μM
Description: as §1, §2

E. cloacae = assay: as above; type: cell-based, Enterobacter cloacae; conditions: EC 118568; PMBN or 1 at 7.1 μM
Description: as §1, §2

[1] = test system: P. aeruginosa PAO1 and efflux deficient mutants, MDR/XDR isolates; assay: microbe, parasite or virus in culture; type: cell-based, Pseudomonas aeruginosa
Description: Antimicrobial Susceptibility Assay. The in vitro antimicrobial activity of all compounds/antibiotics against a panel of bacteria was evaluated by microbroth dilution method in accordance with the Clinical and Laboratory Standards Institute (CLSI) guidelines (using ATCC strains as quality control strains) (54). […] The broth with or without bacterial cells was used as positive or negative control, respectively.

[2] = test system: panel of Gram-positive and Gram-negative bacteria; assay: Antimicrobial susceptibility assay against a panel of bacteria; type: cell-based; conditions: some isolates
Description: as §1

[3] = P. aeruginosa PAO1, compound at 8 μM
[4] = PA 262-101856, compound at 8 μM
[5] = PA 264-104354, compound at 8 μM
[6] = PA O200 (efflux-deficient), compound at 8 μM
[7] = PA O750 (efflux-deficient), compound at 8 μM

polymyxin B nonapeptide [PMBN, reference compound]
4 µg/mL: MIC of Novobiocin + adjuvant (7.1 μM) (P. aeruginosa; PA 91433) | MIC of Novobiocin + adjuvant (7.1 μM) (P. aeruginosa; PAO1) | MIC of Novobiocin + adjuvant (7.1 μM) (E. coli; E. coli 94393)
did not potentiate: potentiation of novobiocin (A. baumannii; colistin-resistant mutant B of A. baumannii ATCC 17978)
512 µg/mL: MIC of Novobiocin + adjuvant (7.1 μM) (E. cloacae)
8 µg/mL: MIC of Novobiocin + adjuvant (7.1 μM) (P. aeruginosa; PA 101243)
32 µg/mL: MIC of Novobiocin + adjuvant (7.1 μM) (E. coli; E. coli 94474)
128 µg/mL: MIC of Novobiocin + adjuvant (7.1 μM) (P. aeruginosa; PA 114228)
64 µg/mL: MIC of Novobiocin + adjuvant (7.1 μM) (K. pneumoniae)
1 µg/mL: MIC of Novobiocin + adjuvant (7.1 μM) (A. baumannii; AB 92247, PMBN or 1 at 7.1 μM)

N=C(N)NC[C@H]1O[C@H](O[C@H]2[C@H](OCCCCCCCCCCCCN3CCN(c4cc5c(cc4F)c(=O)c(C(=O)O)cn5C4CC4)CC3)[C@@H](O[C@H]3O[C@H](CO)[C@@H](O)[C@H](NC(=N)N)[C@H]3O)[C@H](NC(=N)N)C[C@@H]2NC(=N)N)[C@H](NC(=N)N)C[C@@H]1O [Compound 27, Guanidinylated Tobramycin-Ciprofloxacin Conjugate]
64 µg/mL: MIC of IPM in the presence of compound (P. aeruginosa; PA 259-96918, compound at 8 μM) | MIC of IPM in the presence of compound (P. aeruginosa; PA 88949, compound at 8 μM)
16 µg/mL: MIC of CAZ in the presence of compound (P. aeruginosa; PA 260-97103, compound at 8 μM) | MIC of CAZ in the presence of compound (P. aeruginosa; [4]) | MIC of IPM in the presence of compound (P. aeruginosa; [4]) | MIC of IPM in the presence of compound (P. aeruginosa; [5]) | MIC of IPM in the presence of compound (P. aeruginosa; PA 86052, compound at 8 μM) | MIC of ATM in the presence of compound (P. aeruginosa; PA 91433, compound at 8 μM) | MIC of ATM in the presence of compound (P. aeruginosa; PA 100036, compound at 8 μM) | MIC of CAZ in the presence of compound (P. aeruginosa; PA 101243, compound at 8 μM) | MIC of IPM in the presence of compound (P. aeruginosa; PA 109084, compound at 8 μM) | MIC ([1]; PAO200 (second column so headed))
8 µg/mL: MIC of Piperacillin + compound (P. aeruginosa; [3]) | MIC of ATM in the presence of compound (P. aeruginosa; PA 260-97103, compound at 8 μM) | MIC of IPM in the presence of compound (P. aeruginosa; PA 260-97103, compound at 8 μM) | MIC of IPM in the presence of compound (P. aeruginosa; PA 91433, compound at 8 μM) | MIC of ATM in the presence of compound (P. aeruginosa; PA 114228, compound at 8 μM)
some modest residual activity: intrinsic antimicrobial activity [2]
6 µg/mL: MIC of CAZ in the presence of compound (P. aeruginosa; PA 100036, compound at 8 μM)
2 µg/mL: MIC of CAZ in the presence of compound (P. aeruginosa; PA 101885, compound at 8 μM) | MIC of IPM in the presence of compound (P. aeruginosa; PA 101885, compound at 8 μM) | MIC of ATM in the presence of compound (P. aeruginosa; PA 108590, compound at 8 μM) | MIC of CAZ in the presence of compound (P. aeruginosa; PA 108590, compound at 8 μM) | MIC of CAZ in the presence of compound (P. aeruginosa; PA 114228, compound at 8 μM) | MIC of IPM in the presence of compound (P. aeruginosa; [6]) | MIC ([1]; PA0750 (efflux-deficient))
4 µg/mL: MIC of CAZ in the presence of compound (P. aeruginosa; PA 91433, compound at 8 μM) | MIC of IPM in the presence of compound (P. aeruginosa; PA 100036, compound at 8 μM) | MIC of ATM in the presence of compound (P. aeruginosa; PA 101243, compound at 8 μM) | MIC of IPM in the presence of compound (P. aeruginosa; PA 101243, compound at 8 μM) | MIC of ATM in the presence of compound (P. aeruginosa; PA 101885, compound at 8 μM) | MIC of IPM in the presence of compound (P. aeruginosa; PA 108590, compound at 8 μM)
0.25 µg/mL: MIC of Ceftazidime + compound (P. aeruginosa; [3]) | MIC of CAZ in the presence of compound (P. aeruginosa; [6]) | MIC of CAZ in the presence of compound (P. aeruginosa; [7]) | MIC of CAZ in the presence of compound (P. aeruginosa; PAO1, compound at 8 μM)
32 µg/mL: MIC of ATM in the presence of compound (P. aeruginosa; PA 259-96918, compound at 8 μM) | MIC of ATM in the presence of compound (P. aeruginosa; [4]) | MIC of ATM in the presence of compound (P. aeruginosa; [5]) | MIC of ATM in the presence of compound (P. aeruginosa; PA 86052, compound at 8 μM) | MIC of CAZ in the presence of compound (P. aeruginosa; PA 86052, compound at 8 μM) | MIC of ATM in the presence of compound (P. aeruginosa; PA 88949, compound at 8 μM) | MIC of CAZ in the presence of compound (P. aeruginosa; PA 88949, compound at 8 μM) | MIC of ATM in the presence of compound (P. aeruginosa; PA 107092, compound at 8 μM) | MIC of CAZ in the presence of compound (P. aeruginosa; PA 107092, compound at 8 μM) | MIC of IPM in the presence of compound (P. aeruginosa; PA 107092, compound at 8 μM) | MIC of ATM in the presence of compound (P. aeruginosa; PA 109084, compound at 8 μM) | MIC of CAZ in the presence of compound (P. aeruginosa; PA 109084, compound at 8 μM) | MIC ([1]; PAO1 (wild-type))
128 µg/mL: MIC of CAZ in the presence of compound (P. aeruginosa; [5])
0.06 µg/mL: MIC of ATM in the presence of compound (P. aeruginosa; [6]) | MIC of ATM in the presence of compound (P. aeruginosa; [7])
512 µg/mL: MIC of CAZ in the presence of compound (P. aeruginosa; PA 259-96918, compound at 8 μM)
0.5 µg/mL: MIC of Aztreonam + compound (P. aeruginosa; [3]) | MIC of ATM in the presence of compound (P. aeruginosa; PAO1, compound at 8 μM)
1 µg/mL: MIC of Imipenem + compound (P. aeruginosa; [3]) | MIC of IPM in the presence of compound (P. aeruginosa; PA 114228, compound at 8 μM) | MIC of IPM in the presence of compound (P. aeruginosa; [7]) | MIC of IPM in the presence of compound (P. aeruginosa; PAO1, compound at 8 μM)
